The target in data set [1] is T1, DNA topoisomerase 1 (Homo sapiens) (UniProt P11387).
T1 sequence (whole entry): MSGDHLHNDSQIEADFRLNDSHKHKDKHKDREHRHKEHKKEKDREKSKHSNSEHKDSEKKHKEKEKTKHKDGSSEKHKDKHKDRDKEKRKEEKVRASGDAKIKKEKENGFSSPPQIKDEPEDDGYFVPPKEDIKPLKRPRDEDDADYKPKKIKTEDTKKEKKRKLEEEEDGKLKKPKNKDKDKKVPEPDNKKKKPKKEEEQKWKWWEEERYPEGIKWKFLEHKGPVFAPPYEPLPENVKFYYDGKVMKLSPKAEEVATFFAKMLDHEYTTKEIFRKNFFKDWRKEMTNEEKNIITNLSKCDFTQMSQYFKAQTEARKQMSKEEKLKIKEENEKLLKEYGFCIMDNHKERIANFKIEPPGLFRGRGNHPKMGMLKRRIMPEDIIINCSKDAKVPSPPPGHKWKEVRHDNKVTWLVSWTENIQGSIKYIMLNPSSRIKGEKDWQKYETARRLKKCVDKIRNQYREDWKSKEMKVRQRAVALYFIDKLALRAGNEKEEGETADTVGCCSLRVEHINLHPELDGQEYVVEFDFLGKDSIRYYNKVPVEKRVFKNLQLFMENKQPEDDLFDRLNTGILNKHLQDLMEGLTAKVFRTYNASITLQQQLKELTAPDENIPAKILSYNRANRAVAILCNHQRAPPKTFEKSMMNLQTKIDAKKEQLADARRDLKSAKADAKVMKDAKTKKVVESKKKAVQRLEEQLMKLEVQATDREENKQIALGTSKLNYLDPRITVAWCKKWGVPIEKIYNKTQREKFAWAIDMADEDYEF
Nature of the data set: Inhibition of human DNA topoisomerase 1 at 10 uM using supercoiled DNA as substrate incubated for 30 mins by EtBr staining based agarose gel electrophoresis method relative to control.

For the next data set, the system named is MCF7. Kind of data set: Cytotoxicity against human MCF7 cells incubated for 48 hrs by MTT assay. The settings on record: MCF7, 48 h. The class given is functional, cell-based. (In general: Tetrazolium dyes change colour on reduction, which living cells bring about.)
A further data set concerns MDA-MB-231. Nature of the data set: Cytotoxicity against human MDA-MB-231 cells incubated for 48 hrs by MTT assay. The class given is functional, cell-based. The settings on record: MDA-MB-231, 48 h.
A further data set relates to PC-3. Kind of data set: Cytotoxicity against human PC-3 cells incubated for 48 hrs by MTT assay. The class given is functional, cell-based. The settings on record: PC-3, 48 h.
For data set [2], the system named is HOS. Nature of the data set: Cytotoxicity against human HOS cells incubated for 48 hrs by MTT assay. The class given is functional, cell-based.
The next data set has as its system DU-145. Kind of data set: Cytotoxicity against human DU-145 cells incubated for 48 hrs by MTT assay. The class given is functional, cell-based. Conditions: DU-145, 48 h.
The subject of a further data set is SK-OV-3. Kind of data set: Cytotoxicity against human SK-OV-3 cells incubated for 48 hrs by MTT assay. In kind it is functional, cell-based. The settings on record: SK-OV-3, 48 h.
The next data set relates to PANC-1. Kind of data set: Cytotoxicity against human PANC-1 cells incubated for 48 hrs by MTT assay. The class given is functional, cell-based. Conditions: PANC-1, 48 h.
The next data set has as its system SAOS-2. Nature of the data set: Cytotoxicity against human SAOS-2 cells incubated for 48 hrs by MTT assay. The class given is functional, cell-based. The settings on record: SAOS-2, 48 h.
The test system of the next data set is MG-63. Nature of the data set: Cytotoxicity against human MG-63 cells incubated for 48 hrs by MTT assay. The class given is functional, cell-based.
Data set [3] in a line: Acute toxicity in Swiss albino mouse assessed as change in ALT level at 200 mg/kg, po administered for 14 days. The class given is organism-based. The settings on record: in vivo, 336 h, time 14 day.
A short description of data set [4]: Acute toxicity in Swiss albino mouse assessed as change in AST level at 200 mg/kg, po administered for 14 days. The settings on record: in vivo, 336 h, time 14 day. In kind it is organism-based.
Data set [5] can be described thus: Acute toxicity in Swiss albino mouse assessed as change in GGT level at 200 mg/kg, po administered for 14 days. The settings on record: in vivo, 336 h, time 14 day. In kind it is organism-based.
The nature of data set [6]: Cytotoxicity against human BJ cells incubated for 48 hrs by MTT assay. The class given is toxicity, cell-based.
Another data set concerns HCT-116. Kind of data set: Cytotoxicity against human HCT-116 cells incubated for 48 hrs by MTT assay. The class given is functional, cell-based. The settings on record: HCT-116, 48 h.
Data set [7] is described as follows: Selectivity ratio of IC50 for human BJ cells to IC50 for human HOS cells.
Data set [8] deals with HOS. Nature of the data set: Cytotoxicity against human HOS cells cultured as 3D spheroids incubated for 120 hrs. The class given is functional, cell-based.
Data set [9] deals with HOS. Nature of the data set: Induction of cell cycle arrest in human HOS cells assessed as accumulation of cells at G0/G1 phase after 48 hrs by flow cytometry analysis (reference value: 52.39 %). The class given is functional. For orientation: Flow cytometry measures light scatter and fluorescence of single cells or particles in a stream.
In data set [10] the test system is HOS. Nature of the data set: Induction of cell cycle arrest in human HOS cells assessed as accumulation of cells at S phase after 48 hrs by flow cytometry analysis (reference value: 32.75 %). In kind it is functional.
The subject of data set [11] is HOS. Nature of the data set: Induction of cell cycle arrest in human HOS cells assessed as accumulation of cells at G2/M phase after 48 hrs by flow cytometry analysis (reference value: 14.86 %). The class given is functional.
Data set [12] relates to HOS. Kind of data set: Induction of cell cycle arrest in human HOS cells assessed as accumulation of cells at pre-G1 phase after 48 hrs by flow cytometry analysis (reference value: 2.18 %). The class given is functional.
Data set [13] concerns HOS. Nature of the data set: Induction of apoptosis in human HOS cells assessed as fold increase in p53 gene expression at 1.47 uM incubated for 48 hrs by RT-qPCR analysis relative to positive control. In kind it is functional.
In data set [14] the test system is HOS. Nature of the data set: Induction of apoptosis in human HOS cells assessed as early apoptotic cells at 5 uM incubated for 48 hrs by Annexin-V FITC/PI staining based flow cytometry analysis (reference value: 0.46%). In kind it is functional.
In data set [15] the test system is HOS. Nature of the data set: Induction of apoptosis in human HOS cells assessed as late apoptotic cells at 5 uM incubated for 48 hrs by Annexin-V FITC/PI staining based flow cytometry analysis (reference value: 0.21%). In kind it is functional.
In data set [16] the test system is HOS. Kind of data set: Induction of apoptosis in human HOS cells assessed as necrotic cells at 5 uM incubated for 48 hrs by Annexin-V FITC/PI staining based flow cytometry analysis (reference value: 1.51%). The class given is functional.
For data set [17], the system named is HOS. Kind of data set: Induction of apoptosis in human HOS cells assessed as fold increase in BAX gene expression at 1.47 uM incubated for 48 hrs by RT-qPCR analysis relative to positive control. The class given is functional.
In data set [18] the test system is HOS. Kind of data set: Induction of apoptosis in human HOS cells assessed as fold decrease in BCL-2 gene expression at 1.47 uM incubated for 48 hrs by RT-qPCR analysis relative to positive control. The class given is functional. Background: Real-time PCR tracks product formation cycle by cycle.
In data set [19] the test system is HOS. Nature of the data set: Induction of apoptosis in human HOS cells assessed as fold decrease in Her2 gene expression at 1.47 uM incubated for 48 hrs by RT-qPCR analysis relative to positive control. The class given is functional.
Data set [20] is described as follows: Acute toxicity in Swiss albino mouse assessed as change in ALT level at 1.47 uM/kg, po administered for 14 days. In kind it is organism-based. The settings on record: in vivo, 336 h, time 14 day.
Data set [21] in a line: Acute toxicity in Swiss albino mouse assessed as change in AST level at 1.47 uM/kg, po administered for 14 days. The class given is organism-based. Conditions: in vivo, 336 h, time 14 day.
The nature of data set [22]: Acute toxicity in Swiss albino mouse assessed as change in GGT level at 1.47 uM/kg, po administered for 14 days. In kind it is organism-based. Conditions: in vivo, 336 h, time 14 day.
Another data set relates to C-26. Kind of data set: Antitumor activity against mouse C26 cells xenografted in BALB/c mouse assessed as decrease in tumor volume at 250 mg/kg, po after 35 days. The settings on record: time 35.0 day. In kind it is functional, organism-based.
Data set [23] can be described thus: Antitumor activity against mouse C26 cells xenografted in BALB/c mouse assessed as decrease in tumor volume at 250 mg/kg, po after 1 week. The class given is functional, C-26. Set-up: scale not given: the % may be the effect or the level left. Conditions: time 1 weeks.
The nature of data set [24]: Antitumor activity against mouse C26 cells xenografted in BALB/c mouse assessed as decrease in tumor volume at 250 mg/kg, po after 5 weeks. In kind it is functional, C-26. On the set-up: scale not given: the % may be the effect or the level left.
Where [25] appears, read: Homo sapiens, MG-63, 48 h, read-out: IC50.

Molecules are shown by their SMILES. The source made the active and inactive calls. The calls are words filed in the database; no cut-off is given here.

As usually defined, the IC50 is the concentration that gives 50% inhibition. Turning to `COc1cc2nc3n(c(=O)c2cc1OC)c(=O)c1cc2ccccc2c(=O)n13`, the inhibition entry in [1] is “Active”. Also, the IC50 in the data set on MCF7, with MDA-MB-231, in the data set with PC-3 and in the data set with HOS [2] was more than 100 µM throughout.
Take `COc1cccc2c1C(=O)c1c(O)c3c(c(O)c1C2=O)C[C@@](O)(C(=O)CO)C[C@@H]3O[C@H]1C[C@H](N)[C@H](O)[C@H](C)O1` [DOXORUBICIN]: the IC50 in the data set with MCF7 amounted to 0.01 µM; in the data set on MDA-MB-231, 1.15 µM; in the data set on PC-3 it was 0.567 µM; with DU-145, 0.072 µM; with SK-OV-3, 0.033 µM; with PANC-1, 0.086 µM. The IC50 is 0.03 µM with HOS [2], 0.144 µM in the data set on SAOS-2 and “Not Active” in the data set on MG-63 (mg-63). For the same compound, the Activity came out at 60 U/L in data set [3], 31 U/L in [4] and 13.7 U/L in [5].
For the compound `O=c1c2ccccc2nc2n1c(=O)c1cc3ccccc3c(=O)n12`, in [1], the inhibition entry was “Active”. Also, the IC50 in the data set on MCF7 was more than 100 µM; in the data set with MDA-MB-231 it was 70.7 µM; in the data set on PC-3 it was more than 100 µM; with HOS [2], more than 100 µM. The compound also displayed an IC50 at 48 h in data set [6] of 128 µM.
With `O=C1NC(=S)n2c1cc1ccccc1c2=O`, the inhibition result in data set [1] is “Active”. The half-inhibitory concentration (IC50) was 12.6 µM with MCF7, more than 100 µM in the data set on MDA-MB-231, more than 100 µM in the data set on PC-3 and more than 100 µM with HOS [2]. In data set [6], this compound came in with an IC50 at 48 h of 258 µM.
Consider `CC[C@@]1(O)C(=O)OCc2c1cc1n(c2=O)Cc2cc3ccccc3nc2-1` [CAMPTOTHECIN], for which the IC50 in the data set on MCF7 stood at 0.324 µM; in the data set on MDA-MB-231, 0.108 µM; with PC-3, 0.234 µM; in the data set with DU-145 it was 0.042 µM; with HCT-116, 0.051 µM; in the data set on SK-OV-3, 0.241 µM. For the same compound, the IC50 with PANC-1 is 0.233 µM; with HOS [2] it was 0.049 µM; in the data set with SAOS-2, 0.055 µM; in the data set on MG-63 (setting [25]), 0.046 µM.
Turning to `O=C1c2cc3ccccc3c(=O)n2C(=S)N1c1ccccc1`, the inhibition result in data set [1] is “Active”. In addition, the IC50 in the data set on MCF7, in the data set with MDA-MB-231, in the data set with PC-3 and in the data set on HOS [2] was more than 100 µM each time.
On to `O=c1/c(=C\c2ccccc2)n2c(=O)c3ccccc3nc2n1CCN1CCOCC1`, for which the inhibition result in data set [1] was “Active”. Also, the IC50 in the data set with MCF7 is 56.4 µM; in the data set with MDA-MB-231, 5.96 µM; with PC-3, more than 100 µM; in the data set on DU-145 it was 3.81 µM; with HCT-116, 3.67 µM; with SK-OV-3, 3.48 µM. Besides, the IC50 in the data set with PANC-1 turned out to be 19.1 µM; with HOS [2] it was 1.47 µM; in the data set with SAOS-2, 3.2 µM; with MG-63 (setting [25]), 17.9 µM. In [6], this compound displayed a half-inhibitory concentration (IC50) at 48 h of 4.25 µM. In data set [7], the “Ratio IC50” value was 2.89. For the same compound, the result in the data set on HOS [8] and in the data set on C-26 was Active. The Activity is 61.08% in the data set with HOS [9]; 27.51% with HOS [10]; 11.41% in the data set with HOS [11]; 39.61% in the data set with HOS [12]; 3.22% in the data set with HOS [14]; 23.58% in the data set on HOS [15]. In addition, the Activity in the data set on HOS [16] turned out to be 12.81%; in data set [20], 22 U/L; in data set [21], 19.5 U/L; in data set [22], 10.3 U/L; in data set [23], 35.5%; in [24], 75.36%. For the same compound, the “fold change (FC)” value in the data set on HOS [13] is listed as 4.907; with HOS [17] it was 6.143; in the data set on HOS [18] it was 0.146; in the data set with HOS [19], 0.237.

For the origin of these results see ChEMBL document CHEMBL5518191, “Camptothecin structure simplification elaborated new imidazo[2,1-b]quinazoline derivative as a human topoisomerase I inhibitor with efficacy against bone cancer cells and colon adenocarcinoma” (Eur J Med Chem, 2024).
